Values after ≈ are worked out from the molar mass of the structure shown. Read-outs that look alike come from different tables or passages of the source. Some results are limits rather than exact numbers.

Among the data in US20240270762A1, “PENICILLIN-BINDING PROTEIN INHIBITORS” (priority 2021, published 2024) are EC50, IC50 and MIC values, retold here.

In assay [1] the target is T1, PBP3 from Escherichia coli (K-12) (Escherichia coli, UniProt P0AD68).
T1 construct: made in house
Description: Bocillin-FL fluorescence polarization competition binding, E. coli PBP3. The gist of the method: (§1)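 Purified PBP was preincubated with inhibitor (E. coli PBP3 1.5 μM, 30 min; P. aeruginosa PBP3 0.75 μM, A. baumannii PBP3 0.2 μM and PBP1a 1 μM, 15 min), then Bocillin-FL (0.1 μM; 0.05 μM for PBP1a) added and FP read up to 60 min. EC50 = 50% loss of bound probe.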
On the technique in general: Fluorescence polarisation rises when a labelled molecule tumbles more slowly, as on binding a larger partner.

The target of assay [2] is T2, PBP3 from Acinetobacter baumannii (ATCC 19606) (Acinetobacter baumannii, UniProt A0ABX6CK25).
T2 sequence (A0ABX6CK25 64-610): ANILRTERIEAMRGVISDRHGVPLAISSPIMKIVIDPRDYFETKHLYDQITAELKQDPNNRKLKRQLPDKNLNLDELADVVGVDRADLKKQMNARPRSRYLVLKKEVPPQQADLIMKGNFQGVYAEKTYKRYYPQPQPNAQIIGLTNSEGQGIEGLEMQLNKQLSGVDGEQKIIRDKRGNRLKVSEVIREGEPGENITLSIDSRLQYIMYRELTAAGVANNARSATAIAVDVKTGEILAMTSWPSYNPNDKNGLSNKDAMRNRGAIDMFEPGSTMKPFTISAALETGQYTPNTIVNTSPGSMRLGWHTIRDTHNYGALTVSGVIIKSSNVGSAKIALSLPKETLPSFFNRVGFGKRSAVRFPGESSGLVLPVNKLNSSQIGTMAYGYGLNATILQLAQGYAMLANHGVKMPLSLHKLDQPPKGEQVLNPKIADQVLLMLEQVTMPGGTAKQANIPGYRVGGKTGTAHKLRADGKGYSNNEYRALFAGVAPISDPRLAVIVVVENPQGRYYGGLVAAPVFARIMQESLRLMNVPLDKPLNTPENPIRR
Description: Bocillin-FL fluorescence polarization competition binding, A. baumannii PBP3. To be noted: fluorescence polarization competition binding assay using Bocillin-FL; read-out: A. baumannii PBP3 Potency. An outline of the steps:
as §1

The test system of another assay is A. baumannii ATCC 17978. Briefly: microbe, parasite or virus in culture. It counts as cell-based. Conditions: Acinetobacter baumannii, ATCC17978, read-out: MIC, A. baumannii ATCC 17978.
The test system of the next assay is P. aeruginosa ATCC 35151. Briefly: microbe, parasite or virus in culture. Type of assay: cell-based. Conditions: Pseudomonas aeruginosa, ATCC35151, read-out: Minimum inhibitory concentration, P. aeruginosa ATCC 35151.
Assay [3] concerns P. aeruginosa (ΔmexAB-oprM). Briefly: Broth microdilution MIC in iron-depleted CAMHB (IDM). Type of assay: cell-based. To be noted: Pseudomonas aeruginosa; iron-depleted CAMHB (IDM); […]; read-out: Minimum inhibitory concentration, P. aeruginosa ΔmexAB-oprM. For orientation: Broth dilution looks for growth in wells or tubes with falling amounts of substance.
Another assay concerns P. aeruginosa CDC-0054. Description: microbe, parasite or virus in culture. Type of assay: cell-based. Conditions: Pseudomonas aeruginosa, CDC0054, read-out: Minimum inhibitory concentration, P. aeruginosa CDC-0054.
Assay [4] deals with N. gonorrhoeae ATCC 49226. Briefly: Liquid broth MIC in Fastidious broth. To be noted: Neisseria gonorrhoeae.
For a further assay, the system named is N. gonorrhoeae MS11. Description: Liquid broth MIC in Fastidious broth. To be noted: Neisseria gonorrhoeae.
The test system of another assay is N. gonorrhoeae WHO K. Description: Liquid broth MIC in Fastidious broth. Conditions: Neisseria gonorrhoeae.
The test system of a further assay is N. gonorrhoeae WHO Z. Description: Liquid broth MIC in Fastidious broth. Conditions: Neisseria gonorrhoeae.
The mark [5] stands for this setting: ATCC49226, read-out: Minimum Inhibitory Concentration (MIC), N. gonorrhoeae ATCC 49226.
Setting [6] is: MS11, read-out: Minimum Inhibitory Concentration (MIC), N. gonorrhoeae MS11.
The mark [7] stands for this setting: read-out: Minimum Inhibitory Concentration (MIC), N. gonorrhoeae WHO K.
[8] abbreviates: read-out: Minimum Inhibitory Concentration (MIC), N. gonorrhoeae WHO Z.

T1 sequence (P0AD68 1-577): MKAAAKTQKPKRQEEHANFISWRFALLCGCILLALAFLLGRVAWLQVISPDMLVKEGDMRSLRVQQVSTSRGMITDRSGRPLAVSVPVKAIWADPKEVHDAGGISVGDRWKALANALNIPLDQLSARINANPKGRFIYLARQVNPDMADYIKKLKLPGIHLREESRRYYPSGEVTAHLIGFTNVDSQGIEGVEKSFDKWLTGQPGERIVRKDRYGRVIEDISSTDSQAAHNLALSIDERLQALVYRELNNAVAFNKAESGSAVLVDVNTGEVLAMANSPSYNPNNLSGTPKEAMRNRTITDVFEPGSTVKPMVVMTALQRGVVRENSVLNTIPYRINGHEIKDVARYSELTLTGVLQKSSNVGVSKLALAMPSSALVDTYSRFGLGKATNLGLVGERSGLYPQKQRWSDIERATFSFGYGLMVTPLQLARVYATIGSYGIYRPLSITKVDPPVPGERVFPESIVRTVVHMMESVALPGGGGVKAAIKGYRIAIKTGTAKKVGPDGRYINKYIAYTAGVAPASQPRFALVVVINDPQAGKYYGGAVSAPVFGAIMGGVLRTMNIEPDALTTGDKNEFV

The term EC50 denotes the concentration at which the effect is half-maximal. For the compound `O=C(NCCN1CCN(C(=O)NC(C(=O)N[C@H]2Cc3ccc(F)c(C(=O)O)c3OB2O)c2cc(F)c(O)c(O)c2Cl)C(=O)C1=O)Nc1cccc(O)c1` (stereo partly drawn) [Example 220, (3R)-3-(2-(2-chloro-5-fluoro-3,4-dihydroxyphenyl)-2-(4-(2-(3-(3-hydroxyphenyl)ureido)ethyl)-2,3-dioxopiperazine-1-carboxamido)acetamido)-7-fluoro-2-hydroxy-3,4-dihydro-2H-benzo[e][1,2]oxaborinine-8-carboxylic acid], the concentration for a half-maximal effect (EC50) in assay [1] is under 10 µM. Moreover, the IC50 in [2] was under 10 µM. Further, the MIC in the assay with A. baumannii ATCC 17978 is under 1 µg/mL; in the assay with P. aeruginosa ATCC 35151, under 1 µg/mL; in [3], under 1 µg/mL; in the assay on P. aeruginosa CDC-0054 it was 8 to 16 µg/mL (≈ 10.5 to 21 µM); in assay [4] (setting [5]), 16 to 32 µg/mL (≈ 21 to 42.1 µM); in the assay on N. gonorrhoeae MS11 (setting [6]) it was 16 to 32 µg/mL (≈ 21 to 42.1 µM). Further, the MIC in the assay with N. gonorrhoeae WHO K (setting [7]) and in the assay with N. gonorrhoeae WHO Z (setting [8]) was over 64 µg/mL each time.

Regarding `O=C(NCCN1CCN(C(=O)NC(C(=O)N[C@H]2Cc3ccc(F)c(C(=O)O)c3OB2O)c2cc(F)c(O)c(O)c2Cl)C1=O)c1cccc(O)c1` (stereo partly drawn) [Example 244, (3R)-3-(2-(2-chloro-5-fluoro-3,4-dihydroxyphenyl)-2-(3-(2-(3-hydroxybenzamido)ethyl)-2-oxoimidazolidine-1-carboxamido)acetamido)-7-fluoro-2-hydroxy-3,4-dihydro-2H-benzo[e][1,2]oxaborinine-8-carboxylic acid], in assay [1], the concentration giving a half-maximal response (EC50) is 10 to 50 µM. The IC50 in assay [2] was under 10 µM. Moreover, the MIC with A. baumannii ATCC 17978 is under 1 µg/mL; in the assay with P. aeruginosa ATCC 35151, under 1 µg/mL; in assay [3], under 1 µg/mL; in the assay with P. aeruginosa CDC-0054, 2 to 4 µg/mL (≈ 2.79 to 5.57 µM); in [4] (setting [5]), over 64 µg/mL; in the assay on N. gonorrhoeae MS11 (setting [6]), over 64 µg/mL. Also, the MIC in the assay with N. gonorrhoeae WHO K (setting [7]) and in the assay with N. gonorrhoeae WHO Z (setting [8]) was over 64 µg/mL throughout.

As for `O=C(NCCCN1CCN(C(=O)N[C@@H](C(=O)N[C@H]2Cc3ccc(F)c(C(=O)O)c3OB2O)c2cc(F)c(O)c(O)c2Cl)C(=O)C1=O)c1cccnc1` [Example 210, (R)-3-((R)-2-(2-chloro-5-fluoro-3,4-dihydroxyphenyl)-2-(4-(3-(nicotinamido)propyl)-2,3-dioxopiperazine-1-carboxamido)acetamido)-7-fluoro-2-hydroxy-3,4-dihydro-2H-benzo[e][1,2]oxaborinine-8-carboxylic acid], the EC50 in assay [1] is under 10 µM. The IC50 in assay [2] was under 10 µM. The MIC was under 1 µg/mL in the assay with A. baumannii ATCC 17978; under 1 µg/mL with P. aeruginosa ATCC 35151; under 1 µg/mL in [3]; under 1 µg/mL with P. aeruginosa CDC-0054; 16 to 32 µg/mL (≈ 21.5 to 43 µM) in assay [4] (setting [5]); 16 to 32 µg/mL (≈ 21.5 to 43 µM) in the assay on N. gonorrhoeae MS11 (setting [6]). Further, the MIC with N. gonorrhoeae WHO K (setting [7]) is over 64 µg/mL; in the assay on N. gonorrhoeae WHO Z (setting [8]), 16 to 32 µg/mL (≈ 21.5 to 43 µM).

In assay [1], `O=C(NCCS(=O)(=O)N1CCN(C(=O)NC(C(=O)N[C@H]2Cc3ccc(F)c(C(=O)O)c3OB2O)c2cc(F)c(O)c(O)c2Cl)C1=O)c1cccnc1` (stereo partly drawn) [Example 262, (3R)-3-(2-(2-chloro-5-fluoro-3,4-dihydroxyphenyl)-2-(3-((2-(nicotinamido)ethyl)sulfonyl)-2-oxoimidazolidine-1-carboxamido)acetamido)-7-fluoro-2-hydroxy-3,4-dihydro-2H-benzo[e][1,2]oxaborinine-8-carboxylic acid] registered an EC50 of under 10 µM. Besides, the IC50 in [2] is under 10 µM. Also, the MIC with A. baumannii ATCC 17978 is under 1 µg/mL; with P. aeruginosa ATCC 35151 it was under 1 µg/mL; in assay [3], under 1 µg/mL; in the assay with P. aeruginosa CDC-0054, 2 to 4 µg/mL (≈ 2.61 to 5.22 µM); in [4] (ATCC49226, read-out: Minimum Inhibitory Concentration, ATCC 49226) it was 16 to 32 µg/mL (≈ 20.9 to 41.7 µM); in the assay with N. gonorrhoeae MS11 (MS11, read-out: Minimum Inhibitory Concentration, MS11) it was 16 to 32 µg/mL (≈ 20.9 to 41.7 µM). For the same compound, the MIC in the assay with N. gonorrhoeae WHO K (read-out: Minimum Inhibitory Concentration, WHO K) was over 64 µg/mL; in the assay with N. gonorrhoeae WHO Z (read-out: Minimum Inhibitory Concentration, WHO Z) it was 16 to 32 µg/mL (≈ 20.9 to 41.7 µM).
